Measurements as given in ChEMBL document CHEMBL1212738, “Phenotypic and genotypic characterization of Enterobacteriaceae with decreased susceptibility to carbapenems: results from large hospital-based surveillance studies in China” (2010).
In brackets after ≈: the same amount, converted by molar mass.

Tests used:
Citrobacter freundii [1] = assay: Antimicrobial activity against Citrobacter freundii SZ63T expressing IMP-4, qnrS1by CLSI method; assay type: functional
Klebsiella pneumoniae [2] = assay: Antimicrobial activity against Klebsiella pneumoniae ZJ18T expressing KPC-2, DHA-1 by CLSI method; assay type: functional
Escherichia coli [3] = assay: Antimicrobial activity against carbapenem-resistant Escherichia coli ZJ86 expressing KPC-2, TEM-1 with ompC loss by CLSI method
Klebsiella pneumoniae [4] = assay: Antimicrobial activity against carbapenem-resistant Klebsiella pneumoniae ZJ18 deficient in KPC-2, SHV-28, DHA-1, ompK35 by CLSI method; assay type: functional
Escherichia coli [5] = assay: Antimicrobial activity against carbapenem-resistant Escherichia coli HX74 deficient in TEM-1, CTX-M-14, CTX-M-3, aac(6')-Ibcr, ompC/F by CLSI method; assay type: functional
Escherichia coli [6] = assay: Antimicrobial activity against Escherichia coli ZJ87 expressing KPC-2, TEM-1, ompC by CLSI method; assay type: functional
Klebsiella pneumoniae [7] = assay: Antimicrobial activity against Klebsiella pneumoniae ZJ70T expressing KPC-2 by CLSI method; assay type: functional
Klebsiella pneumoniae [8] = assay: Antimicrobial activity against Klebsiella pneumoniae WH97 expressing SHV-33, aac(6')-Ib, ompK35 DE by CLSI method; assay type: functional
Klebsiella pneumoniae [9] = assay: Antimicrobial activity against carbapenem-resistant Klebsiella pneumoniae XJ81 deficient in TEM-1, SHV-12, DHA-1, aac(6')-Ib, ompK35/36 by CLSI method; assay type: functional
Escherichia coli [10] = assay: Antimicrobial activity against Escherichia coli C600 transconjugant WH77T expressing IMP-4, TEM-1, CTX-M-3, qnrS1 by CLSI method
Klebsiella pneumoniae [11] = assay: Antimicrobial activity against carbapenem-resistant Klebsiella pneumoniae ZJ70 deficient in KPC-2, SHV-11, CTX-M-14, ompK35/36 by CLSI method; assay type: functional
Enterobacter cloacae [12] = assay: Antimicrobial activity against carbapenem-resistant Enterobacter cloacae WH103 deficient in IMP-4, TEM-1, CTX-M-3, qnrS1, ompC by CLSI method; assay type: functional
Escherichia coli [13] = assay: Antimicrobial activity against Escherichia coli C600 transconjugant SZ62T expressing IMP-4, qnrS1by CLSI method
Enterobacter cloacae [14] = assay: Antimicrobial activity against carbapenem-resistant Enterobacter cloacae SZ92 deficient in IMP-4, TEM-1, CTX-M-14, DHA-1, qnrB10/B4-like, aac(6')-Ib, ompC by CLSI method; assay type: functional
Klebsiella aerogenes = assay: Antimicrobial activity against carbapenem-resistant Enterobacter aerogenes PU41 deficient in CTX-M-14, DHA-1, qnrS1, ompC DEc, ompF by CLSI method; assay type: functional
Escherichia coli [15] = assay: Antimicrobial activity against carbapenem-resistant Escherichia coli PU101 deficient in TEM-1, CTX-M-14, CMY-2, ompC by CLSI method; assay type: functional
Klebsiella pneumoniae [16] = assay: Antimicrobial activity against Klebsiella pneumoniae ZJ99 expressing KPC-2, CTX-M-3, qnrS1, ompK35 DE by CLSI method; assay type: functional
Klebsiella pneumoniae [17] = assay: Antimicrobial activity against Klebsiella pneumoniae FZ47T expressing IMP-8, TEM-1, CTX-M-14, qnrB2, aac(6')-Ib by CLSI method; assay type: functional
Klebsiella pneumoniae [18] = assay: Antimicrobial activity against carbapenem-resistant Klebsiella pneumoniae GZ83 deficient in SHV-11, CTX-M-14, ompK35/36 by CLSI method; assay type: functional
Klebsiella pneumoniae [19] = assay: Antimicrobial activity against carbapenem-resistant Klebsiella pneumoniae ZJ71 deficient in KPC-2, TEM-1, SHV-11, CTX-M-14, ompK35 by CLSI method; assay type: functional
Citrobacter freundii [20] = assay: Antimicrobial activity against Citrobacter freundii RJ78 expressing CMY-2, qnrA1, aac(6')-Ib-cr, ompC by CLSI method; assay type: functional
Klebsiella pneumoniae [21] = assay: Antimicrobial activity against carbapenem-resistant Klebsiella pneumoniae FZ49 deficient in IMP-8, TEM-1, SHV-11, CTX-M-14, qnrB2, aac(6')-Ib, ompK35/36 by CLSI method; assay type: functional
Escherichia coli [22] = assay: Antimicrobial activity against carbapenem-resistant Escherichia coli PU96 deficient in TEM-1, CTX-M-14, CMY-2, ompC/F by CLSI method; assay type: functional
Klebsiella pneumoniae [23] = assay: Antimicrobial activity against carbapenem-resistant Klebsiella pneumoniae GZ66 deficient in SHV-11, DHA-1, ompK35/36 by CLSI method; assay type: functional
Klebsiella pneumoniae [24] = assay: Antimicrobial activity against carbapenem-resistant Klebsiella pneumoniae SZ61 deficient in TEM-1, SHV-1a, CMY-2, ompK35/36 by CLSI method; assay type: functional
Klebsiella pneumoniae [25] = assay: Antimicrobial activity against carbapenem-resistant Klebsiella pneumoniae ZJ69 deficient in SHV-28, ompK35/36 by CLSI method; assay type: functional
Escherichia coli [26] = assay: Antimicrobial activity against Escherichia coli C600 transconjugant GZ66T expressing SHV-11, DHA-1 by CLSI method
Klebsiella pneumoniae [27] = assay: Antimicrobial activity against Klebsiella pneumoniae WH77 expressing IMP-4, TEM-1, SHV-14, CTX-M-3, qnrS1 by CLSI method; assay type: functional
Enterobacter cloacae [28] = assay: Antimicrobial activity against carbapenem-resistant Enterobacter cloacae RJ94 deficient in IMP-4, TEM-1, CTX-M-3, ompC by CLSI method; assay type: functional
Klebsiella pneumoniae [29] = assay: Antimicrobial activity against Klebsiella pneumoniae ZJ99T expressing KPC-2, CTX-M-3, qnrS1 by CLSI method; assay type: functional
Escherichia coli [30] = assay: Antimicrobial activity against Escherichia coli C600 transconjugant XJ81T expressing TEM-1, SHV-12, aac(6')-Ib by CLSI method
Enterobacter cloacae [31] = assay: Antimicrobial activity against carbapenem-resistant Enterobacter cloacae NJ90 deficient in CTX-M-14, ompC/F by CLSI method; assay type: functional
Klebsiella pneumoniae [32] = assay: Antimicrobial activity against carbapenem-resistant Klebsiella pneumoniae PU3 deficient in DHA-1, aac(6')-Ib-cr, ompK35/36 by CLSI method; assay type: functional
Escherichia coli [33] = assay: Antimicrobial activity against carbapenem-resistant Escherichia coli PU102 deficient in TEM-1, CTX-M-14, CMY-2, aac(6')-Ib, ompC DEc, ompF by CLSI method; assay type: functional
Escherichia coli [34] = assay: Antimicrobial activity against carbapenem-resistant Escherichia coli PU43 deficient in TEM-1, CTX-M-14, aac(6')-Ib, ompC/F by CLSI method; assay type: functional
Escherichia coli [35] = assay: Antimicrobial activity against carbapenem-resistant Escherichia coli PU60 deficient in TEM-1, CMY-2, ompC/F by CLSI method; assay type: functional
Klebsiella pneumoniae [36] = assay: Antimicrobial activity against Klebsiella pneumoniae FZ49T expressing IMP-8, TEM-1, CTX-M-14, qnrB2, aac(6')-Ib by CLSI method; assay type: functional

With `C[C@@H](O)[C@H]1C(=O)N2C(C(=O)O)=C(SCCNC=N)C[C@H]12` [IMIPENEM ANHYDROUS] the MIC (Citrobacter freundii [1]) was 4 mg/L (≈ 13.4 µM), the MIC (Klebsiella pneumoniae [2]) was 2 mg/L (≈ 6.68 µM) and the MIC (Escherichia coli [3]) was 8 mg/L (≈ 26.7 µM). The MIC (Klebsiella pneumoniae [4]) was 16 mg/L (≈ 53.4 µM), the MIC (Escherichia coli [5]) was 4 mg/L (≈ 13.4 µM) and the MIC (Escherichia coli [6]) was 8 mg/L (≈ 26.7 µM). It also gave an MIC (Klebsiella pneumoniae [7]) of 16 mg/L (≈ 53.4 µM), an MIC (Klebsiella pneumoniae [8]) of 2 mg/L (≈ 6.68 µM) and an MIC (Klebsiella pneumoniae [9]) of 8 mg/L (≈ 26.7 µM). For the same compound, the MIC (Escherichia coli [10]) was 4 mg/L (≈ 13.4 µM), the MIC (Klebsiella pneumoniae [11]) was over 256 mg/L and the MIC (Enterobacter cloacae [12]) was 8 mg/L (≈ 26.7 µM). It also gave an MIC (Escherichia coli [13]) of 4 mg/L (≈ 13.4 µM), an MIC (Enterobacter cloacae [14]) of 8 mg/L (≈ 26.7 µM) and an MIC (Klebsiella aerogenes) of 32 mg/L (≈ 107 µM). For the same compound, the MIC (Escherichia coli [15]) was 32 mg/L (≈ 107 µM), the MIC (Klebsiella pneumoniae [16]) was 16 mg/L (≈ 53.4 µM) and the MIC (Klebsiella pneumoniae [17]) was 4 mg/L (≈ 13.4 µM). It also gave an MIC (Klebsiella pneumoniae [18]) of 32 mg/L (≈ 107 µM), an MIC (Klebsiella pneumoniae [19]) of 16 mg/L (≈ 53.4 µM) and an MIC (Citrobacter freundii [20]) of 8 mg/L (≈ 26.7 µM). For the same compound, the MIC (Klebsiella pneumoniae [21]) was 8 mg/L (≈ 26.7 µM), the MIC (Escherichia coli [22]) was 32 mg/L (≈ 107 µM) and the MIC (Klebsiella pneumoniae [23]) was 32 mg/L (≈ 107 µM). For the same compound, the MIC (Klebsiella pneumoniae [24]) was 16 mg/L (≈ 53.4 µM), the MIC (Klebsiella pneumoniae [25]) was 32 mg/L (≈ 107 µM) and the MIC (Escherichia coli [26]) was 0.5 mg/L (≈ 1.67 µM). The MIC (Klebsiella pneumoniae [27]) was 2 mg/L (≈ 6.68 µM), the MIC (Enterobacter cloacae [28]) was 8 mg/L (≈ 26.7 µM) and the MIC (Klebsiella pneumoniae [29]) was 16 mg/L (≈ 53.4 µM). For the same compound, the MIC (Escherichia coli [30]) was 0.25 mg/L (≈ 0.835 µM), the MIC (Enterobacter cloacae [31]) was 16 mg/L (≈ 53.4 µM) and the MIC (Klebsiella pneumoniae [32]) was 32 mg/L (≈ 107 µM). It also gave an MIC (Escherichia coli [33]) of 16 mg/L (≈ 53.4 µM), an MIC (Escherichia coli [34]) of 8 mg/L (≈ 26.7 µM) and an MIC (Escherichia coli [35]) of 32 mg/L (≈ 107 µM). The MIC (Klebsiella pneumoniae [36]) was 4 mg/L (≈ 13.4 µM).
